# Laboratory results published in patent publication US7485651B2, “Compounds with activity on muscarinic receptors” (Acadia Pharmaceuticals, Inc., priority 1998, dated 2009).
# Tests used:
# Format in all cases: cell-based
# m3 receptor = biological target: T1, m3 receptor (Homo sapiens, UniProt P20309); assay: R-SAT / NIH 3T3 cells transfected with m3 muscarinic receptor
# T1 construct: expressed in transfected cells; host or cells: NIH 3T3 (ATCC CRL 1658)
# Source text: A particularly convenient functional assay system is the receptor selection and amplification assay disclosed in U.S. Pat. No. 5,707,798 describing a method of screening for bioactive compounds by utilizing the ability of cells transfected with receptor DNA, e.g. coding for the different muscarinic subtypes, to amplify in the presence of a ligand of the receptor. Cell amplification is detected as increased levels of a marker also expressed by the cells.
# Transfection of cells with muscarinic receptor DNAs (general procedure) NIH 3T3 cells (available from the American Type Culture Collection as ATCC CRL 1658) were grown at 37° C. in a humidified atmosphere (5% CO2) incubator in Dulbecco's modified Eagle's medium (DMEM) supplemented with 4.5 g/l glucose, 4 mM glutamine, 50 units/m1 penicillin, 50 units/m1 streptomycin (available from Advanced Biotechnologies, Inc., Gaithersburg, Md.) and 10% calf serum (available from Sigma, St. Louis, […].). The cells were treated with trypsin-EDTA, spun down and plated at 2×10^6 per 15 cm dish in 20 m1 of DMEM containing 10% calf serum.
# The m1-m5 muscarinic receptor subtypes were cloned substantially as described by Bonner et al., Science 237, 1987, p. 527, and Bonner et al., Neuron 1, 1988, p. 403. For the m2 and m4 receptors, the cells were co-transfected with DNA encoding a chimera between the Gq protein and the five carboxy-terminal amino acids of the Gi protein (the Gq-i5 construct is described by Conklin et al., Nature 363, 1993, p.274).
# On day one, the cells were transfected using the Superfect transfection reagent (available from Qiagen, Valencia, Calif.) in accordance with the manufacturer's instructions. Receptor DNA, β-gal DNA (pSI-β-galactosidase available from Promega, Madison, Wis.), chimeric Gq-i5 DNA for the m2 and m4 receptor subtype assays, and salmon sperm DNA (available from Sigma, St. Louis, […].) as filler to a total of 20 μg DNA was added per plate. Prior to addition to the plates, 60 μl Superfect was added to the DNA and mixed thoroughly by pipetting up and down several times. The mixture was incubated at room temperature for 10-15 minutes. The media were aspirated, and 12 ml fresh DMEM containing 10% calf serum and 50 units/m1 penicillin/streptomycin was added to the plates. The DNA-Superfect solution was mixed once more with a pipette and added to the plate which was swirled to distribute the DNA mixture evenly over the surface. The cells were incubated overnight at 37° C. and 5% CO2. After incubation, the media were aspirated and the plates were rinsed once with a 15 m1 volume of Hank's Buffered Saline. The plates were swirled to ensure thorough rinsing. 20 m1 fresh DMEM supplemented with 10% calf serum and 50 units/m1 penicillin/streptomycin was added to the plates. The cells were incubated for 24-48 hours until the plates were 100% confluent.
# Assay of NIH 3T3 cells transfected with muscarinic receptor subtypes (general procedure) DMEM containing 2% Cyto-SF3 was heated at 37° C. in a water bath under sterile conditions. Sterile working stock solutions of test compounds to be assayed were prepared by diluting the compounds in DMEM to 8× the final concentration for testing. The compound (carbachol) to be included in the assay as a positive control was also diluted in DMEM to 8× the final concentration. 50 μL of the DMEM containing 2% Cyto-SF3 was added to each well of 96-well microtiter plates under sterile conditions. Then, 16 of compound solutions were added to the top wells of the plates, and dilution of the solutions was performed by taking 16 μl of the compound solutions from the top wells and pipetting them into the next row of wells. This procedure was repeated with each subsequent row of wells, except that 50 μl medium alone was added to the baseline control wells (the wells that contain medium and cells, but not test compounds) and plate control wells (wells containing medium, but not test compounds and cells). […]
# [1] = biological target: T2, α-adrenergic receptor subtype 1B (Homo sapiens, UniProt P35368); assay: Test against other receptors: α-adrenergic 1B
# T2 sequence (P35368 1-520): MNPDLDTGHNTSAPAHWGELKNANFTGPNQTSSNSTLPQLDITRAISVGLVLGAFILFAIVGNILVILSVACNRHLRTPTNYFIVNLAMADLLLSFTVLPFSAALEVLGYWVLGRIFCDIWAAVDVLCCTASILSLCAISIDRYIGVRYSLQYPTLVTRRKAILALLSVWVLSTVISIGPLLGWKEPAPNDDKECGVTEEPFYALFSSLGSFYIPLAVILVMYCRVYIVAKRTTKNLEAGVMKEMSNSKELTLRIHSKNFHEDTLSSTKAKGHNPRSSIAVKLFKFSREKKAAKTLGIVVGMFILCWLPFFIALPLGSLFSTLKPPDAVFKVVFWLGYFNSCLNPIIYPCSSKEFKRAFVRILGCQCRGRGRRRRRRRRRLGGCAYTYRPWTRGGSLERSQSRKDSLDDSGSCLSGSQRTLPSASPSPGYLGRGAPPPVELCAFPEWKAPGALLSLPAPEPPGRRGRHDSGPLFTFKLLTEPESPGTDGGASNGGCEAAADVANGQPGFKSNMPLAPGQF
# [2] = biological target: T3, α-adrenergic receptor subtype 1D (Homo sapiens, UniProt P25100); assay: Test against other receptors: α-adrenergic 1D
# T3 sequence (P25100 1-572): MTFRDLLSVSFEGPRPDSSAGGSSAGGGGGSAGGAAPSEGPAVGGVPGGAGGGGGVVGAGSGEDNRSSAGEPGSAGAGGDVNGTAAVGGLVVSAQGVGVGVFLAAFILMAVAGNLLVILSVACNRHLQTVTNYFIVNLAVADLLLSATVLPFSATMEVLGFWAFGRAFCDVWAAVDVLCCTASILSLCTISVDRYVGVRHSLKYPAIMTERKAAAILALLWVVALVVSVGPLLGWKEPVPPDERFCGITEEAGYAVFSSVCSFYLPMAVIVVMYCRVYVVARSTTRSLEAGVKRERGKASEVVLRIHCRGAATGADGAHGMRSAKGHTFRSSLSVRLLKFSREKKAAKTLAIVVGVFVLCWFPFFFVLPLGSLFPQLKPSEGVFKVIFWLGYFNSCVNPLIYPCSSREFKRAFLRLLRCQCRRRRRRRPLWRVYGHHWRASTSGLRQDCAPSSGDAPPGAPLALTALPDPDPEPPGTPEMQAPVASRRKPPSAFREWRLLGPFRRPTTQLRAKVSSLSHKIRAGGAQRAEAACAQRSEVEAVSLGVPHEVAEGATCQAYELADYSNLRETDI
# T1 sequence (P20309 whole entry): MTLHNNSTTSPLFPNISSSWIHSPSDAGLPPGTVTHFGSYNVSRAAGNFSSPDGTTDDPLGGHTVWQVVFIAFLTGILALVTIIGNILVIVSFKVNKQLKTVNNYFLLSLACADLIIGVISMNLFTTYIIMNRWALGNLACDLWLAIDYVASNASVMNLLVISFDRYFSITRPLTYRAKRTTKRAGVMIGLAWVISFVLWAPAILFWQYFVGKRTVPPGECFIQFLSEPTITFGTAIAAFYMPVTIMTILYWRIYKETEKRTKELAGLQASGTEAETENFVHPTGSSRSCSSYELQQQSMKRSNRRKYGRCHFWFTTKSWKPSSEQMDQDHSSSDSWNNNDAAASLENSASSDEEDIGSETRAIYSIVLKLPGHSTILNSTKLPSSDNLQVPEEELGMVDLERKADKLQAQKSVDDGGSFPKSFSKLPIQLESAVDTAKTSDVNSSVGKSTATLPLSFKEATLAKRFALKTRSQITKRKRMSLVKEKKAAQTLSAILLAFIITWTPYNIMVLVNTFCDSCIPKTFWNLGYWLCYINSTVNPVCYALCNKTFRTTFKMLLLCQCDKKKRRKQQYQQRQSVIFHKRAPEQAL
smiles,measurement,setting,value
"CCCCC1CCN(CCCC(=O)c2ccccc2C)CC1 [Compound A, 4-n-Butyl-1-[4-(2-methylphenyl)-4-oxo-1-butyl]piperidine]",agonist activity at the m3 receptor,m3 receptor,only activated the m1 receptor subtype
same,Emax at 1.5 µM,"m3 receptor; NIH3T3, m3, compound at 1.5 μM, maximum = response to 10 μM carbachol, read-out: Cellular response as a percentage of the maximum response of the cells",7%
same,antagonism of carbachol-induced responses,m3 receptor; m3,not an antagonist
same,agonist activity,[1],no significant activity
same,agonist activity,[2],no significant activity
